Source: a melting point compilation (Tetko et al.; mined from patent text by program, amines drawn as free bases though some values may be those of a salt)

Work on `CCS(=O)(=O)N[C@H](C(=O)NCCc1ccc(OCc2ccc(Cl)s2)c(OC)c1)C(C)C` yielded a melting point of 124 to 127 °C. `CC(C)C(C(=O)O[C@H]1C[C@H](O)C=C2C=C[C@H](C)[C@H](CC[C@@H]3C[C@@H](O)CC(=O)O3)[C@H]21)C(C)C` gave a melting point of 210 to 211 °C. Work on `COC(=O)c1ccccc1NS(=O)(=O)c1nc2nc(C)cc(C)n2n1` yielded a melting point of 170 °C. With `C#CC(Cn1ncnn1)n1nnc2cc3c(=O)n(C4CC4)nnc3cc2c1=O` (configuration not stated) the melting point was 224 to 225 °C. `O=[N+]([O-])c1cccnc1NCc1ccc(Cl)cc1` gave a melting point of 95 to 96 °C. For `Cc1ccc(NC(=O)Nc2ccc(N(CCCl)CCCl)cc2)cc1Nc1c2cccc(C)c2nc2c(C(=O)NCCN(C)C)cccc12`, the melting point was 286 to 289 °C. Compound `CNC(=NCCSSCc1nc[nH]c1C)NC#N` has a melting point of 137 to 142 °C. `O=C(NCCCN1CCC(c2ccccc2)(c2ccccc2)CC1)N1C(=O)OCC1c1ccc(F)c(Cl)c1` (configuration not stated) gave a melting point of 112 to 115 °C. With `O=C(NCc1cn(-c2ccc(N3CCSCC3)c(F)c2)nn1)c1cnccn1` the melting point was 216 to 218 °C. `C=CCn1ncc2cc3ncc(-c4ccc(OC)c(F)c4)nc3cc21` gave a melting point of 121 to 124 °C. For `COc1ccc2c(c1)C(O)CC21CCN(CCCC(=O)c2ccc(F)cc2)C1` (configuration not stated), the melting point was 113 to 115 °C. For `C=CS(=O)(=O)CCC(F)(F)C(F)(F)C(F)(F)C(F)(F)C(F)(F)C(F)(F)F`, the melting point was 58 to 60 °C. With `O=C1COCCN1c1ccc(N2C[C@@H](CN(Cc3ccccc3)Cc3ccccc3)OC2=O)cc1` the melting point was 140 to 145 °C. `COc1cccc(CNC(=O)c2ccc(CCl)cc2)c1` gave a melting point of 108 to 110 °C. `Cc1[nH]cc2c(=O)n(-c3ccc(Cl)cc3)nc-2c1-c1cccc(C(=O)N2CCN(C)CC2)c1` showed a melting point of 318 to 322 °C. `CC(F)(F)c1cccc(C[C@@H](C(=O)O)[C@@H](O)c2ccc(F)cc2)c1` (racemic) showed a melting point of 132 to 133 °C. `CNC(=O)c1ccccc1Nc1nc(Nc2cc3c(cc2OC)N(C)C(=O)OCC3)ncc1Br` gave a melting point of 227 to 228 °C. `Cc1cc(Br)c2c(c1)N(S(=O)(=O)c1ccc(Cl)cc1)CCO2` showed a melting point of 143 to 145 °C. Compound `CCC(=O)Nc1nc(C)c(C(=O)NCc2ccccc2)s1` has a melting point of 175 to 176 °C. In the case of `CCOCCOc1nc2c(c3ccccc13)c1cc(Cl)ccc1n2C`, the melting point is reported as 93.5 to 95.5 °C. `CCOC(=O)COc1cc(F)c(C)cc1C(=S)NCc1ccc(Br)cc1F` showed a melting point of 98 to 100 °C. In the case of `Cc1oc(-c2ccccc2)nc1COc1ccc(C=CC=O)cc1`, the melting point is reported as 114 to 115 °C. In the case of `O=C(O)C(CC(=O)N1Cc2ccc(F)cc2C1)Cc1ccccc1` (configuration not stated), the melting point is reported as 136 to 138 °C. `CC1CCCN(C(=O)COc2cc(-c3ccccc3)nc3ccccc23)C1` (configuration not stated) gave a melting point of 96 °C. `COc1ccc(CNc2nnc(N3CCC(O)CC3)c3ccc(C#N)cc23)cc1Cl` showed a melting point of 172 to 174 °C. Work on `Cc1cc(C)c(Nc2nc(C)ncc2S(=O)(=O)c2ccc(-c3ncc[nH]3)cc2)c(C)c1` yielded a melting point of 282 to 284 °C. `CCCCCCCCCCCCCCCCCCOc1cc(NC(=O)OC(C)(C)C)cc([N+](=O)[O-])c1` showed a melting point of 70 to 72 °C. Compound `COC(=O)Cc1cccc(-c2nc(=O)c3ccccc3s2)n1` has a melting point of 180 °C. For `Cc1oc(-c2ccccc2)nc1C(=O)COc1ccc(CC2SC(=O)NC2=O)cc1` (configuration not stated), the melting point was 168 to 169 °C. Compound `CCCC(N)CCCCCCC(=O)O` (configuration not stated) has a melting point of 107 to 108 °C. Work on `Clc1ncnc2ccoc12` yielded a melting point of 122 °C. Work on `Cc1nc(Br)sc1NC(=O)OC(C)(C)C` yielded a melting point of 114 to 116 °C. For `C=CCSc1cn(C)cc(-c2ccccc2)c1=O`, the melting point was 136 to 138 °C. For `COc1ccc(-c2nc(-c3cccs3)c[nH]2)cc1C`, the melting point was 110 to 114 °C. In the case of `O=C(c1ccccc1)C(O)c1ccc(Cl)c(Cl)c1` (configuration not stated), the melting point is reported as 204 to 209 °C. `CCCc1nc(Nc2ccc3cn[nH]c3c2)nc(NC2CCN(S(C)(=O)=O)CC2)n1` gave a melting point of 219 to 221 °C. Compound `CCOC(=O)c1cc(C(O)CBr)c(=O)[nH]c1C(=O)OCC` (configuration not stated) has a melting point of 134 to 138 °C. `C=CCN1CCc2c(sc(N)c2C(=O)c2ccc(Br)cc2)C1` gave a melting point of 116 to 118 °C. For `CCCc1c(OCCCCCCc2cccc(OCCCC(=O)O)c2CCC(=O)O)ccc2c1OCCC2=O`, the melting point was 116 to 118 °C. For `O=[N+]([O-])c1cccc(NS(=O)(=O)c2ccccc2)c1`, the melting point was 132 to 134 °C. In the case of `COc1cc(OC)cc(OC(=S)N(C)C)c1`, the melting point is reported as 77 to 78 °C. In the case of `COCCOc1ccc(/C=C/C(=O)O)c(Oc2ncc(Br)s2)c1`, the melting point is reported as 144 to 145 °C. For `Nc1cc(-c2ccccn2)c[nH]c1=O`, the melting point was 259 to 262 °C. `N#Cc1c(N)nc2ccc([N+](=O)[O-])cc2c1NCc1ccccc1` gave a melting point of 280 to 283 °C. `NC(=O)c1nccn1C1Cc2cc(Br)ccc2C1=O` (configuration not stated) gave a melting point of 240 °C. `CC1(C)CS(=O)CC(C)(C)c2[nH]c(-c3ccccc3)nc21` showed a melting point of 273 to 275 °C. Compound `COc1ccc2cc([C@H](C)C(=O)OCCOc3ccc(OCCO)cc3)ccc2c1` has a melting point of 76 to 78 °C. Work on `C=C(C[C@@H](Cc1ccccc1)C(=O)N1CCOCC1)[C@H](C)[C@H](Cc1ccccc1)C(=O)N1CCOCC1` (relative stereo) yielded a melting point of 125 to 126 °C. `O=C(NC(Cc1ccccc1)C(=O)C(F)F)c1ccccc1` (configuration not stated) gave a melting point of 136 °C. With `CCOC(=O)N1CCN(c2nc3c(cc2F)c(=O)c(C(=O)O)cn3C2CC2)CC1` the melting point was 277 to 279 °C. For `CS(=O)(=O)c1cc(O)ccc1/C=C/c1ccc(O)cc1`, the melting point was 244 to 245 °C. Work on `CC(=CC(=O)c1cccnc1)N(C)C` yielded a melting point of 62 to 64 °C. Work on `COc1ccc(C2C3=C(COC3=O)Nc3ccc4cn[nH]c4c32)cc1[N+](=O)[O-]` (configuration not stated) yielded a melting point of 217 to 218 °C. Compound `NC(=O)c1nsc(N)c1C(N)=O` has a melting point of 205 °C. With `CC(CNC1CC(C)(C)NC(C)(C)C1)C(=O)NC1CC(C)(C)NC(C)(C)C1` (configuration not stated) the melting point was 116 °C. In the case of `Cc1nn(C(=O)Oc2ccccc2)c(=O)n1N`, the melting point is reported as 175 °C. With `C[C@@H](NC(=O)[C@@H](NC(=O)[C@H](CCCc1ccc(-c2ccccc2)c(Cl)c1)CC(=O)NO)C(C)(C)C)c1ccccc1` the melting point was 107 to 109 °C. `CN(C)C1CCc2[nH]c3c(C(N)=O)cccc3c2C1` (configuration not stated) showed a melting point of 252 to 254 °C. With `CS(=O)(=O)c1ccc2c(c1)c1c(n2Cc2ccc(Cl)cc2)C(CC(=O)O)CCC1` (configuration not stated) the melting point was 101 to 102 °C. For `CCOc1cc(CBr)ccc1C(=O)O`, the melting point was 64 to 66 °C. Compound `C=CC(=Cc1ccccc1)N(C)C` has a melting point of 72 to 74 °C. With `COC(=O)c1cc2cnc(SC)nc2n(Cc2ccc(OC)c(Cl)c2)c1=O` the melting point was 191 to 193 °C. `CCCc1[nH]c(C(=O)OCC)c(CCC)c1C` showed a melting point of 78 to 80 °C. With `COC(=O)c1ccc(Oc2ccc(Oc3ccccc3)cc2)cc1` the melting point was 14 °C. For `COC(=O)c1sc(Cl)nc1C(F)(F)F`, the melting point was 32 to 34 °C. `O=C(O)c1cc(Cl)c(C(=O)O)c([N+](=O)[O-])c1Cl` showed a melting point of 287 to 288 °C. For `O=C1Nc2ccc(F)c(F)c2C(=O)N2CCC[C@@H]12`, the melting point was > 250 °C. Compound `CCCCC(=O)c1c(-c2ccc3c(C)c(OCC(=O)O)ccc3c2)oc2ccccc12` has a melting point of 153 to 155 °C. Compound `FC(F)(F)c1ccnc(Oc2ccc(CCOc3ncnc4nccnc34)cc2)c1` has a melting point of 172 to 173 °C. In the case of `CCn1c(NC)nc(=O)c2ccccc21`, the melting point is reported as 262 to 264 °C. Work on `COc1c(NC(=O)c2ccc(Br)cc2)ccc2cc(CN3CCCC3)cnc12` yielded a melting point of 121 to 122 °C. In the case of `CCCCCCCCC1C=CC(/C=C/c2ccc(C(=O)O)o2)=C2N=C3CCCC(C)(C)C3=C21` (configuration not stated), the melting point is reported as 115 to 117 °C. With `N#Cc1cnc2c(sc3ccccc32)c1Nc1ccc(Oc2ccccc2)cc1` the melting point was 230 to 233 °C. Work on `O=C1NCC(C(F)(F)C(F)(F)C(F)(F)F)C(=O)N1` (configuration not stated) yielded a melting point of 223 °C. In the case of `COc1ccc2ccc(O)c(C3NCCc4ccccc43)c2c1` (configuration not stated), the melting point is reported as 126 to 130 °C. `Nn1cnc2c(Br)csc2c1=O` showed a melting point of 181 to 183 °C. For `CC(C)(C)OC(=O)NCCN1C(=O)c2ccccc2C1=O`, the melting point was 143 to 145 °C. In the case of `CCOC(=O)c1sc(SC(C)C)c2c1CCC(N=[N+]=[N-])C2=O` (configuration not stated), the melting point is reported as 118 to 119 °C. Work on `O=C1C(O)OC=CN1Cc1ccccc1` (configuration not stated) yielded a melting point of 134 °C. With `COc1ccc(-c2cnc3cc4[nH]ncc4cc3n2)cc1F` the melting point was > 250 °C. Work on `COc1cccc(C23CCN(C)CC2Cc2c([nH]c(C(=O)NCc4ccccc4)c2C)C3)c1` (configuration not stated) yielded a melting point of 162 to 164 °C. For `COc1ccc(-c2ccc(C(=O)O)cc2)cc1-c1ccc2c(c1)C(C)(C)CCC2(C)C`, the melting point was 251 to 255 °C. In the case of `OCc1cc(NCCCCCCBr)ccc1O`, the melting point is reported as 132 to 134 °C. In the case of `C/C(=C\C(C)O)c1ccc(-c2ccccc2)c(Cl)c1` (configuration not stated), the melting point is reported as 86 °C. For `COCOc1cc(CBr)c2nc3cccc(OCOC)c3nc2c1`, the melting point was 167 to 168 °C. In the case of `CC1(C)SCN(CCCCN2CCN(c3ccc4ccccc4n3)CC2)C1=O`, the melting point is reported as 107 to 111 °C. For `Cn1ccc2c3c(c(-c4ccccc4S(C)=O)cc21)C(=O)NC3=O` (configuration not stated), the melting point was 311 to 315 °C. With `CC(=O)C1=Cc2cc(Cl)cc(C)c2OC1` the melting point was 78 to 79 °C. With `Oc1nsc(OC2CCCCC2)n1` the melting point was 105 °C. With `COc1cc2c(cc1Nc1ncc(Cl)c(Nc3ccccc3S(=O)(=O)N3CCCC3)n1)NC(=O)CN(CC1CC1)C2` the melting point was 142 °C. With `CC(=O)Oc1ccccc1C(=O)ON(C(N)=O)C(C)c1cc2ccccc2s1` (configuration not stated) the melting point was 141 to 143 °C. `Cn1cnc2c(Cl)ncnc21` gave a melting point of 205 to 207 °C. `CC(C)(C)OC(=O)NCC(=O)N1CCC[C@H]1C(=O)OC[C@H](Cc1ccccc1)Nc1ccc(O)c2c1C(=O)c1c(O)cccc1C2=O` showed a melting point of 100 °C. Compound `CC(=O)N1CCN=C1Nc1ccnn1-c1ccc(F)cc1` has a melting point of 162 to 164 °C. `CS(=O)(=O)c1ccc(C=C2/C(=N/O)CCc3ccccc32)cc1` showed a melting point of 165 to 166 °C. For `CCCCCCOc1ccc(N=C(NC#N)NCCC(C)(C)C)cc1`, the melting point was 183 to 184 °C. Work on `CC(C)(C)C(O)(C=Cc1ccc(Cl)cc1)n1cncn1` (configuration not stated) yielded a melting point of 139 to 141 °C. Compound `CC(C)(CO)NS(=O)(=O)c1cccc(NC(=O)c2cnn3c(C(F)(F)F)cc(-c4ccc(Cl)c(Cl)c4)nc23)c1` has a melting point of 269 °C. Compound `COc1c(N2CCC(n3cncn3)C2)c(F)cc2c(=O)c(C(=O)O)cn(C3CC3)c12` (configuration not stated) has a melting point of 221 to 222 °C. For `CC1Cc2c(cc(C(C)(C)C)c(O)c2C(C)(C)C)O1` (configuration not stated), the melting point was 86.8 °C. `Fc1ccccc1-c1cn([C@H]2CN3CCC2CC3)nn1` showed a melting point of 94 °C. `CCCCn1ccc(-c2ccc3c(c2)OCCN3[C@H]2CC[C@H](O)CC2)c(Cl)c1=O` gave a melting point of 178 °C.
